In patent US20130005762A1, “COMBINATION OF DROLOXIFENE AND CLOPIDOGREL” (TCP Innovations Limited, priority 2009, published 2013):
“Also recorded” adds a separate entry of the source. Counter-ions that a name gives are not always drawn.

Experiments:
[1] = tested on: rat aortic smooth muscle cells; assay: TGF-beta Production Stimulator functional assay: suppression of smooth muscle cell proliferation reversible by neutralising anti-TGF-beta1 antibody; format: cell-based, Wistar rat; conditions: compared side-by-side with Tamoxifen
Excerpt: In order compare Droloxifene with other triphenylethylenes, we have exploited a functional assay for TGF-beta1 activity. Alternative approaches are less suitable for various reasons: it is not possible to directly measure TGF-beta protein production by cultured cells in response to triphenylethylenes because the TGF-beta that is produced remains associated with the cells or the extracellular matrix and is therefore not available for assay (for example, by ELISA) in the conditioned medium from the cultured cells. […] The specificity of such an assay is achieved by comparing the rate of proliferation of the smooth muscle cells in the presence or absence of a validated, highly specific neutralising antibody against TGF-beta (or TGF-beta1, as required).
The cells were prepared by enzyme dispersion of isolated rat aortae exactly as described previously (Grainger et al (1993) Biochem. J. 294(1):109-12 and the references therein). The cells were cultured (37° C.; 5% CO2) in DMEM+10% foetal calf serum (FCS), and subcultured every 4 days at 1:2 dilution, using 0.02% trypsin/EDTA (Gibco). Experiments were performed between the sixth and twentieth subculture.
For the experiments, the cells were subcultured into 12-well cluster plates, and allowed to grow for 24 hrs. […] The cells were then incubated for 72 hrs. All treatment conditions were established in triplicate. One triplicate of cells was counted (see below) at Oh. All other wells were counted at 72 hrs.
The number of cells in each well was determined as follows: the well was washed three times with serum-free DMEM, aspirated and then incubated with 100 μl of trypsin/EDTA solution (Gibco) for 2 minutes at 37° C. Complete release of the cell monolayer was confirmed microscopically. The cell density in portion of this suspension was determined by counting using an Improved Neubauer hameocytometer, ensuring the suspension was uniform by gentle pipetting, prior to sampling. The cell density was converted to the absolute number of cells present in the well by multiplying the number of cells per μl by the total volume of suspension (100 μl). For each condition, the mean number of cells at the end of the experiment was calculated by meaning the number of cells in each well of triplicate.
The extent of proliferation of the cell culture under each condition was determined by subtracting the mean number of cells at time Oh from the mean number of cells under that condition at time 72 h. The amount of TGF-beta1 activity under each condition was determined by subtracting the inhibition of growth achieved in the presence of neutralising anti-TGF-beta1 antibody (AB-101-NA; R&D Systems) from the inhibition of growth achieved in the absence of antibody.

[2] = Effect of co-administered triphenylethylenes on clopidogrel metabolism in vivo (CLP*-acetamide by LC-MS); set-up: species or system Sprague-Dawley rats; conditions: oral gavage; for effect on clopidogrel metabolism (in words): 0.1 to 10 mg/kg with 10 mg/kg clopidogrel
Description: Adult male Sprague-Dawley rats are dosed with various triphenylethylenes at different doses from 0.1 mg/kg to 10 mg/kg (spanning the likely doses such compounds would be used in man), or with vehicle only, and simultaneously dosed with 10 mg/kg clopidogrel, both by oral gavage. Blood samples are drawn through an in-dwelling jugular catheter at 0.5, 1, 2, 4, 8 and 24 hrs post-dose, and serum is prepared by conventional methods well known in the art.
The level of CLP*, the active metabolite of clopidogrel is then determined in each blood sample by LC-MS by collecting the blood samples in tubes containing the thiol alkylating agent iodeoacetamide. Iodoacetamide reacts with CLP* to generate a stable product which can be detected by LC-MS using standard methodology well known in the art. An authentic sample of the acetamide adduct of CLP* is used to quantify the level of CLP*-acetamide in the sample. […] The concentration of CLP*-acetamide adduct can therefore be assumed to be proportional to the concentration of CLP*. The pharmacokinetics of CLP*-acetamide are then compared under the different conditions, using standard pharmacokinetics models implemented with WinNonLin.

[3] = Meta-analysis of cardiovascular outcomes of women treated with Tamoxifen (Braithwaite et al.); format: in vivo; conditions: translated from the relative risk
Excerpt: This translates to a 33% reduction in risk, which, if replicated among higher risk groups such as men, would result in at least 10,000 fewer deaths due to myocardial infarction in the UK alone each year, and five times that number in the US.

[4] = analog 0.1 mg/kg with 10 mg/kg clopidogrel
[5] = analog 1 mg/kg with 10 mg/kg clopidogrel
[6] = analog 10 mg/kg with 10 mg/kg clopidogrel

Row | SMILES | TGF-beta Production Stimulator activity (in words) [1] | effect on clopidogrel metabolism (in words) [2] | effect on clopidogrel metabolism (in words) ([2]; listed as droloxifene) | % inhibition of CLP*-acetamide Cmax compared to vehicle control [2, 4] | % inhibition of CLP*-acetamide Cmax compared to vehicle control [2, 5] | % inhibition of CLP*-acetamide Cmax compared to vehicle control [2, 6] | TGF-beta Production Stimulator activity (in words) ([1]; listed as raloxifene) | reduction in risk of death from myocardial infarction [3]
1 | CC/C(=C(/c1ccc(OCCN(C)C)cc1)c1cccc(O)c1)c1ccccc1 [Droloxifene, (E)-1-(4′-(2-dimethylaminoethoxy)phenyl)-1-(3-hydroxyphenyl)-2-phenylbut-1-ene] | comparable activity | no effect on clopidogrel metabolism | no effect on the pharmacokinetics of clopidogrel | 0% | −19% | −7% | – | –
2 | CC/C(=C(\c1ccc(I)cc1)c1ccc(OCCN2CCCC2)cc1)c1ccccc1 [Idoxifene] | – | – | – | 2% | 6% | 48% | – | –
3 | O=C(c1ccc(OCCN2CCCCC2)cc1)c1c(-c2ccc(O)cc2)sc2cc(O)ccc12 [Raloxifene] | does not have measurable activity | – | – | −18% | 11% | – | substantially less active; also recorded: does not stimulate the production of TGF-beta1 | –
4 | CC/C(=C(\c1ccccc1)c1ccc(OCCN(C)C)cc1)c1ccccc1 [Tamoxifen] | – | – | – | – | – | – | – | 33%
5 | CC/C(=C(\c1ccccc1)c1ccc(OCCN(C)C)cc1)c1ccccc1 [tamoxifen citrate] | no difference | – | – | – | – | – | – | –
